# Experimental data from the supplement of paper PMC10307832.
# Compound: Cc1cc([C@@H](C)Nc2ccccc2C(=O)O)c2nc(N3CCOCC3)cc(=O)n2c1 [AZD6482] + CS(=O)(=O)CCNCc1ccc(-c2ccc3ncnc(Nc4ccc(OCc5cccc(F)c5)c(Cl)c4)c3c2)o1 [Lapatinib] (partner 2 µM)
# Test: relative viability (nuclei count vs DMSO), 5 days (fraction); higher = more cells survive
# Details: first compound 0.08 µM
# Procedure, shortened: (§1)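 Cells from lung cancer lines were seeded into 1536-well plates and, one day later, dosed by pin tool. Treatments were either a single drug or a fixed dose of an anchor drug with five library-drug doses (not always all listed) in √10 steps. After 5 days, nuclei were stained in a one-step fixation (final 0.05% Triton X-100, 1% formaldehyde, 1 ug/ml Hoechst) and counted on 4× images, and relative viability is the treated-to-vehicle nuclei ratio, as the median of duplicate plates.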
row,Cell Line,relative viability
1,NCI-H727,0.659
2,NCI-H1650,0.754
3,EBC-1,0.184
4,NCI-H1703,1.11
5,NCI-H1993,0.779
6,SW 1573,1.15
7,NCI-H838,0.776
8,NCI-H520,0.644
9,NCI-H2126,0.635
10,EMC-BAC-2,0.852
11,NCI-H2085,0.42
12,Calu-6,1.05

# Same assay, conditions: first compound 0.253 µM
row,Cell Line,relative viability
1,NCI-H727,0.843
2,EBC-1,0.196
3,NCI-H1703,0.871
4,NCI-H1993,0.791
5,SW 1573,1.13
6,NCI-H838,0.783
7,NCI-H520,0.397
8,NCI-H2126,0.644
9,EMC-BAC-2,0.869
10,NCI-H2085,0.407
11,Calu-6,1.07

# Same assay, conditions: first compound 0.8 µM
row,Cell Line,relative viability
1,NCI-H727,0.951
2,NCI-H1650,0.688
3,EBC-1,0.211
4,NCI-H1703,0.654
5,SW 1573,1.02
6,NCI-H838,0.894
7,NCI-H520,0.619
8,NCI-H2126,0.636
9,EMC-BAC-2,0.886
10,NCI-H2085,0.457
11,Calu-6,1.14

# Same assay, conditions: first compound 2.53 µM
row,Cell Line,relative viability
1,NCI-H1650,0.602
2,EBC-1,0.218
3,NCI-H1703,0.448
4,SW 1573,0.771
5,NCI-H838,0.482
6,NCI-H2126,0.519
7,EMC-BAC-2,0.695
8,NCI-H2085,0.366
9,Calu-6,0.879

# Same assay, conditions: first compound 8 µM
row,Cell Line,relative viability
1,NCI-H727,0.667
2,NCI-H1650,0.681
3,EBC-1,0.216
4,NCI-H1703,0.484
5,NCI-H1993,0.784
6,SW 1573,0.759
7,NCI-H838,0.6
8,NCI-H520,0.263
9,NCI-H2126,0.49
10,EMC-BAC-2,0.828
11,NCI-H2085,0.372
12,Calu-6,0.953

# Compound: COc1cc2nc(N3CCCN(C)CC3)nc(NC3CCN(Cc4ccccc4)CC3)c2cc1OC + CS(=O)(=O)N1CCN(Cc2cc3nc(-c4cccc5[nH]ncc45)nc(N4CCOCC4)c3s2)CC1 [Pictilisib] (partner 1 µM)
# Test: as above
# Details: first compound 0.2 µM
# Procedure, shortened: as §1
row,Cell Line,relative viability
1,NCI-H727,0.391
2,NCI-H1650,0.543
3,EBC-1,0.337
4,NCI-H1703,0.25
5,NCI-H1993,0.709
6,SW 1573,0.478
7,NCI-H838,0.477
8,LCLC-103H,0.635
9,NCI-H520,0.292
10,NCI-H2126,0.505
11,EMC-BAC-2,0.559
12,NCI-H2085,0.446
13,Calu-6,0.924
14,ChaGo-K-1,0.752
15,NCI-H441,0.407

# Same assay, conditions: first compound 0.6325 µM
row,Cell Line,relative viability
1,NCI-H727,0.394
2,NCI-H1650,0.699
3,EBC-1,0.392
4,NCI-H1703,0.225
5,NCI-H1993,0.858
6,SW 1573,0.539
7,NCI-H838,0.598
8,LCLC-103H,0.666
9,NCI-H520,0.329
10,NCI-H2126,0.557
11,EMC-BAC-2,0.555
12,NCI-H2085,0.522
13,Calu-6,0.978
14,ChaGo-K-1,0.87

# Same assay, conditions: first compound 2 µM
row,Cell Line,relative viability
1,NCI-H727,0.32
2,NCI-H1650,0.544
3,EBC-1,0.248
4,NCI-H1703,0.266
5,NCI-H1993,0.894
6,SW 1573,0.537
7,NCI-H838,0.479
8,LCLC-103H,0.656
9,NCI-H520,0.332
10,NCI-H2126,0.456
11,EMC-BAC-2,0.564
12,NCI-H2085,0.471
13,Calu-6,0.953
14,ChaGo-K-1,1.12
15,NCI-H441,0.48

# Same assay, conditions: first compound 6.325 µM
row,Cell Line,relative viability
1,NCI-H727,0.346
2,NCI-H1650,0.548
3,EBC-1,0.132
4,NCI-H1703,0.16
5,NCI-H1993,0.811
6,SW 1573,0.325
7,NCI-H838,0.424
8,LCLC-103H,0.585
9,NCI-H520,0.21
10,NCI-H2126,0.47
11,EMC-BAC-2,0.57
12,NCI-H2085,0.404
13,Calu-6,0.743
14,ChaGo-K-1,0.49
15,NCI-H441,0.38

# Compound: COc1cc2nc(N3CCCN(C)CC3)nc(NC3CCN(Cc4ccccc4)CC3)c2cc1OC
# Test: relative viability (nuclei count vs DMSO), 5 days (fraction); higher = more cells survive
# Details: 0.2 µM
# Procedure, shortened: (§2)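 After an overnight hold at 37 °C, lung cancer cell lines in 1536-well plates were pinned with five library-drug doses (not always all listed), each √10 from the next, on vehicle-anchored plates. The cells stayed 5 days without fresh medium, then a one-step fix, permeabilisation and Hoechst stain preceded 4× imaging and MetaXpress nuclear counts. A plate passed only with control CV under 25% and at least one doubling. Viability is the median, over plates, of treated-well nuclei relative to vehicle-well nuclei.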
row,Cell Line,relative viability
1,NCI-H2342,1.02
2,NCI-H1623,0.933
3,NCI-H727,0.834
4,NCI-H1650,0.863
5,EBC-1,0.948
6,NCI-H1703,1.09
7,NCI-H1993,0.879
8,SW 1573,0.906
9,NCI-H838,0.992
10,LCLC-103H,0.992
11,NCI-H520,1.02
12,NCI-H2126,0.996
13,EMC-BAC-2,1.14
14,NCI-H2085,1.01
15,Calu-6,0.968
16,NCI-H1648,0.713
17,ChaGo-K-1,0.944
18,NCI-H522,0.987
19,SW 900,0.81
20,NCI-H441,0.985

# Same assay, conditions: 0.6325 µM
row,Cell Line,relative viability
1,NCI-H2342,0.887
2,NCI-H1623,0.965
3,NCI-H727,0.867
4,NCI-H1650,1.03
5,EBC-1,0.9
6,NCI-H1703,0.789
7,NCI-H1993,1.18
8,SW 1573,0.983
9,NCI-H838,1.03
10,LCLC-103H,1.03
11,NCI-H520,0.912
12,NCI-H2126,1.02
13,EMC-BAC-2,0.981
14,NCI-H2085,1.02
15,Calu-6,0.942
16,NCI-H1648,0.798
17,ChaGo-K-1,0.985
18,NCI-H522,1.01
19,SW 900,1.03
20,NCI-H441,0.825

# Same assay, conditions: 2 µM
row,Cell Line,relative viability
1,NCI-H2342,0.956
2,NCI-H1623,0.979
3,NCI-H727,0.826
4,NCI-H1650,0.924
5,EBC-1,0.976
6,NCI-H1703,0.975
7,NCI-H1993,0.912
8,SW 1573,1.02
9,NCI-H838,1.08
10,LCLC-103H,1.1
11,NCI-H520,1.02
12,NCI-H2126,0.998
13,EMC-BAC-2,0.996
14,NCI-H2085,0.992
15,Calu-6,1.09
16,NCI-H1648,0.757
17,ChaGo-K-1,1.03
18,NCI-H522,0.936
19,SW 900,0.89
20,NCI-H441,1.03

# Same assay, conditions: 6.325 µM
row,Cell Line,relative viability
1,NCI-H2342,0.995
2,NCI-H1623,0.966
3,NCI-H727,0.783
4,NCI-H1650,0.835
5,EBC-1,0.827
6,NCI-H1703,0.571
7,NCI-H1993,0.905
8,SW 1573,0.651
9,NCI-H838,0.92
10,LCLC-103H,0.978
11,NCI-H520,0.736
12,NCI-H2126,0.926
13,EMC-BAC-2,1.04
14,NCI-H2085,0.965
15,Calu-6,0.913
16,NCI-H1648,1.13
17,ChaGo-K-1,0.94
18,NCI-H522,1.02
19,SW 900,0.752
20,NCI-H441,0.81

# Compound: Cc1cc([C@@H](C)Nc2ccccc2C(=O)O)c2nc(N3CCOCC3)cc(=O)n2c1 [AZD6482]
# Test: as above
# Details: 0.08 µM
# Procedure, shortened: as §2
row,Cell Line,relative viability
1,NCI-H2342,0.892
2,NCI-H1623,0.899
3,NCI-H727,0.877
4,NCI-H1650,0.839
5,EBC-1,0.881
6,NCI-H1703,0.861
7,NCI-H1993,0.68
8,SW 1573,0.916
9,NCI-H838,0.826
10,LCLC-103H,0.875
11,NCI-H520,0.713
12,NCI-H2126,0.916
13,EMC-BAC-2,0.976
14,NCI-H2085,0.801
15,Calu-6,0.951
16,NCI-H1648,0.888
17,ChaGo-K-1,1.07
18,NCI-H522,0.959
19,SW 900,0.675
20,NCI-H441,1.01

# Same assay, conditions: 0.253 µM
row,Cell Line,relative viability
1,NCI-H2342,0.87
2,NCI-H1623,0.947
3,NCI-H727,0.789
4,NCI-H1650,0.854
5,EBC-1,0.923
6,NCI-H1703,0.797
7,NCI-H1993,0.792
8,SW 1573,0.908
9,NCI-H838,0.95
10,LCLC-103H,1.04
11,NCI-H520,0.627
12,NCI-H2126,0.94
13,EMC-BAC-2,0.898
14,NCI-H2085,0.675
15,Calu-6,0.938
16,NCI-H1648,0.863
17,ChaGo-K-1,0.839
18,NCI-H522,0.789
19,SW 900,0.683
20,NCI-H441,0.896

# Same assay, conditions: 0.8 µM
row,Cell Line,relative viability
1,NCI-H2342,0.92
2,NCI-H1623,0.955
3,NCI-H727,0.945
4,NCI-H1650,0.778
5,EBC-1,0.855
6,NCI-H1703,0.676
7,NCI-H1993,0.631
8,SW 1573,0.818
9,NCI-H838,0.914
10,LCLC-103H,0.948
11,NCI-H520,0.623
12,NCI-H2126,0.891
13,EMC-BAC-2,1.01
14,NCI-H2085,0.588
15,Calu-6,0.992
16,NCI-H1648,0.954
17,ChaGo-K-1,1.05
18,NCI-H522,0.981
19,SW 900,0.691
20,NCI-H441,1.22

# Same assay, conditions: 2.53 µM
row,Cell Line,relative viability
1,NCI-H2342,0.653
2,NCI-H1623,0.76
3,NCI-H727,0.58
4,NCI-H1650,0.719
5,EBC-1,0.467
6,NCI-H1703,0.332
7,NCI-H1993,0.557
8,SW 1573,0.677
9,NCI-H838,0.538
10,LCLC-103H,0.655
11,NCI-H520,0.208
12,NCI-H2126,0.585
13,EMC-BAC-2,0.722
14,NCI-H2085,0.4
15,Calu-6,0.824
16,NCI-H1648,0.519
17,ChaGo-K-1,0.91
18,NCI-H522,0.926
19,SW 900,0.486

# Same assay, conditions: 8 µM
row,Cell Line,relative viability
1,NCI-H2342,0.688
2,NCI-H1623,0.632
3,NCI-H727,0.833
4,NCI-H1650,0.862
5,EBC-1,0.449
6,NCI-H1703,0.414
7,NCI-H1993,0.676
8,SW 1573,0.674
9,NCI-H838,0.535
10,LCLC-103H,0.575
11,NCI-H520,0.337
12,NCI-H2126,0.654
13,EMC-BAC-2,0.748
14,NCI-H2085,0.384
15,Calu-6,0.875
16,NCI-H1648,0.599
17,ChaGo-K-1,0.983
18,NCI-H522,0.768
19,SW 900,0.778
20,NCI-H441,1.02
